The values below come from patent US6962971B2, “Chemokines and methods for inducing the differentiation of fibroblasts to myofibroblasts” (The Regents of the University of California, priority 2001, dated 2005).

Assay [1] concerns chicken chorioallantoic membrane (CAM). As to conditions: in vivo; cited from earlier work.
Assay [2] has as its system primary chicken embryonic connective tissue fibroblasts. In words: Fibroblast growth assay. The assay is classed as cell-based. As to conditions: for effect on fibroblast growth / cell numbers: 3 days treatment, 2% donor calf serum. How it is done:
Primary chicken embryonic connective tissue fibroblasts (CEFs) were cultured as previously described in Martins-Green and Feugate (1998). Briefly, these fibroblasts were isolated from 10-day-old chicken embryo body walls, plated at 6×10^6 cells/100 mm plate and cultured for 4 days in 199 medium with 5% donor calf serum, 1% chick serum and 0.3% tryptose phosphate broth. These cultures were passaged once (secondary cultures); the cells were plated at 0.4×10^6 cells/35 mm plate in 199/tryptose phosphate broth and 2% donor calf serum.
Secondary fibroblasts were plated at 0.4×10^6 cells/35 mm plate and cCAF was added to experimental plates. For each experiment, plating efficiency was determined by trypsinizing plates four hours after plating. Cells were counted with a Coulter particle counter to confirm even plating of cells. The media was replaced approximately every 16 hr with 1 ml of […] 199 medium containing 0.3% tryptose phosphate broth and 2% donor calf serum, and 100-1000 ng cCAF [9-90 nM] or C- or N-peptide [64-640 nM] was added to the experimental plates, whereas, control plates contained media only. On day 3, plates were trypsinized to remove all cells and cells were counted using a Coulter counter. To test for specificity, anti-cCAF rabbit serum was pre-incubated with cCAF (3 μl serum/750 ng cCAF [68 nM] or N-peptide [480 nM]) for 1 hr at room temperature before being added to cells.

In assay [3] the test system is chicken CXC receptor 1 (CXCR1). In words: Chicken cCXCR1-mediated calcium release. It counts as cell-based. As to conditions: NIH #373 cells overexpressing chicken CXCR1. Here is the method:
NIH #373 cells overexpressing the chicken CXC receptor 1 (CXCR1) were exposed to the full-length cCAF molecule, the 15-amino N-terminal peptide of cCAF, or the 28-amino acid C-terminal peptide and calcium release was then measured.

A further assay has as its system fibroblasts. In words: Induction of differentiation of fibroblasts to myofibroblasts by IL-8 forms. It counts as cell-based. As to conditions: IL-8-77 versus IL-8-72.
Assay [4] relates to Full-thickness excision wounds on the underside of the wings of 2-week-old chicks. In words: Wounding experiment: closure of excision wounds. It counts as in vivo, chicken. As to conditions: 1 μg every other day, topical; versus vehicle (H2O) on contralateral wing. Here is the method:
Full-thickness excision wounds (approximately 0.5×0.5 cm) were made, using a scalpel blade, on the underside of the wings of 2-week-old chicks. The left wing was treated with vehicle alone (water), and the right wing with […] cCAF [90 nM]. The wounds were photographed immediately after wounding and then covered with Biocclusive bandage. 50 μl vehicle (water) or cCAF was deposited through the bandage onto the wound using a 30-gauge needle. This procedure was repeated the next day and every other day thereafter. On days 3, 5 and 7, the bandages were removed and the wounds were photographed before replacing the bandages and applying the treatment again.

For assay [5], the system named is fibroblast-seeded collagen gels. Put plainly: Collagen gel contraction by fibroblasts. The assay is classed as cell-based, chicken. How it is done:
1.5 ml Vitrogen 100 collagen gels were made in 35 mm plates. Secondary fibroblasts were plated at 0.4×10^6 cells/35 mm plate on top of the gels. After the cells had adhered to the collagen, cCAF was added to experimental plates. The medium was replaced approximately every 16 hr with 1 ml of 199 supplemented with 0.3% tryptose phosphate broth and 2% donor calf serum, and 750 ng cCAF [68 nM] or N-peptide [480 nM] was added to the experimental plates. Control plates contained media only. After 4 days, gels were released. Treatment was continued for 2 more days and gels were photographed every 12 hours. The photographs were used for evaluation of gel contraction by determining the area of the gel using NIH image analysis.

The test system of assay [6] is α-SMA. Put plainly: Immunostaining for α-SMA in fibroblast cultures and collagen gel sections. The assay is classed as cell-based, chicken. As to conditions: versus control gels. Here is the method: Plates of fibroblasts were treated with cCAF as described previously. After 4 days, the cells were rinsed with PBS, fixed in 4% paraformaldehyde, permeabilized with 0.15% Triton X-100 and incubated with PBS containing 0.1M glycine for 10 min. Cells were blocked for 30 min with 10% goat serum in PBS, incubated with mouse anti-α-SMA, to a final IgG concentration of 20 μg/ml, in 1% BSA/PBS for 1hr at room temperature (RT), and washed three times with 0.1% BSA/PBS for 10 min each. The cells were then incubated in goat anti-mouse FITC or sheep anti-mouse Texas Red (1:100) in 1% BSA/PBS for 1 hr at RT, washed three times for 10 min with 0.1% BSA in PBS and mounted with Vectashield. Collagen gels were rinsed with PBS, fixed in 4% paraformaldehyde for 2 hr, washed three times 30 min each with PBS, and incubated for an additional 30 min in PBS containing 0.1M glycine. This treatment was followed by incubation at 4° C. overnight in 15% sucrose and then incubated under the same conditions in 30% sucrose. After a brief rinse with PBS, the gels were frozen in OCT, sections prepared and collected on gelatin-coated slides, rinsed with PBS, fixed in 4% paraformaldehyde for 10 min, and then incubated again in PBS containing 0.1M glycine for 10 min. This was followed by blocking for 30 min with 10% goat serum in PBS, incubation in primary and secondary antibody as described above, and mounting with Vectashield.

Assay [7] concerns α-SMA. In words: Immunoblotting for α-SMA in fibroblast extracts. The assay is classed as cell-based, chicken. How it is done: Plates of fibroblasts were treated as described previously, with 750 ng/ml cCAF or 2.5 ng/ml TGFβ. To block TGFβ, or cCAF activity, anti-cCAF (3 μl) or anti-TGFβ (1 μl) antibody was pre-incubated in 1 ml media for 1 hr at room temperature before being added to cells. After 4 days of treatment, protein extracts were prepared in 1 ml 150 mM RIPA buffer containing protease inhibitors. Protein concentrations were determined using the DC protein assay kit and samples were adjusted to contain equal amounts of protein. SDS-PAGE was performed on 7.5% separating Doucet gels (Doucet and Trifaro, 1988). Protein transfer to nitrocellulose was performed using a wet-transfer apparatus (Bio-Rad) at 100V for 45 min. The membranes were blocked for 1 hr in 5% milk in TTBS and then incubated overnight at 4° C. in mouse anti-α-SMA, to a final IgG concentration of 5 μg/ml, in 1% milk in TTBS. The membranes were washed 3 times for 20 min each with TTBS, incubated in anti-mouse HRP at 1:10,000 in 1% milk for 1hr and washed as above, and the bands visualized using the ECL.

Entries after “also recorded” stand apart in the source; their conditions may differ.

As to “C-peptide: 28-amino acid peptide extending from residues 59-86 of cCAF (SEQ ID NO:2) (CLDPTAPWVQLIVKALMAKAQLNSDAPL; Gallusgallus) [reference compound]”, the “angiogenic activity of the peptide by itself” value in assay [1] is given as “angiogenic in vivo”. The “effect on fibroblast growth / cell numbers” value in assay [2] is on record as “did not suppress the growth of connective tissue fibroblasts”; in assay [2] (listed as C-terminal peptide) it was “did not cause a decrease in cell numbers”. The calcium release result in assay [3] (400 ng) is reported as “failed to induce calcium release”; in assay [3] (800 ng), “release of calcium that was similar in magnitude, but differed in time course from the N-peptide-induced release”.

On to “IL-8-77: 77-residue form of human interleukin-8, SEQ ID NO:4”, for which, in the assay with fibroblasts, the “potency at inducing differentiation of fibroblasts to myofibroblasts, relative to the other IL-8 form” value is recorded as “more potent at inducing differentiation of fibroblasts to myofibroblasts”.

In the case of “LSQGRTLVKMGNELR (Gallusgallus) [N-peptide, 15-amino acid N-terminal peptide of cCAF]”, the “wound closure at day 3 (days 0-3)” value in assay [4] is “accelerated wound closure during days 0-3, albeit less strongly than with the whole cCAF molecule”. Further, the “contraction of collagen gels after release” value in assay [5] (750 ng/ml, 4-5 days treatment before release, versus untreated cells) is given as “much greater contraction; also recorded: stimulated fibroblasts to contract collagen gels more efficiently than untreated cells; also recorded: contracted the gels more tightly than did untreated cells”. For the same substance, in assay [5] (versus control cells), the “contraction of fibroblast clusters on collagen” value is “form clusters that are much tighter and generally pull away from the collagen; also recorded: more contracted than clusters in control cells”. In addition, the “α-SMA immunolabeling of sections of fibroblast-seeded collagen gels” value in the assay with α-SMA [6] is “more cells with fibers staining for α-SMA than control gels”. Besides, in assay [2], the “effect on fibroblast growth / cell numbers” value was “suppresses the growth of fibroblasts to a level similar to that caused by the whole cCAF molecule; also recorded: decrease in growth similar to that induced by cCAF”. Besides, in assay [2] (compared with whole cCAF, not shown), the “dose- and time-dependent pattern of suppression of growth” value is “same as that of the whole cCAF molecule, albeit at a higher molar concentration”. Besides, the “α-SMA levels by immunoblot” value with α-SMA [7] (750 ng/ml, versus untreated or C-peptide treated cells) is on record as “much higher levels of α-SMA; also recorded: increased levels of α-SMA”. In addition, the calcium release result in assay [3] (400 ng) is on record as “similar, albeit somewhat slower, release”.

Turning to “TGFβ: Transforming Growth Factorβ-1, known stimulator of myofibroblast differentiation [reference compound]”, the “α-SMA expression after TGFβ treatment” value in the assay with α-SMA [7] (2.5 ng/ml) is “stimulation of α-SMA”.
